Key:
[1] = test system: transgenic corn plants, Arabidopsis I393L L385V, event SDM-71855; assay: Greenhouse testing of transgenic corn plants, Arabidopsis I393L L385V; format: in vivo, Zea mays; settings: corn SDM-71855, 5 days after herbicide treatment, average of 8 T1
Text: (§1) Various methods for the production of stably transformed plants are well known in the art. Coumarone-derivative herbicide tolerant soybean (Glycine max) or corn (Zea mays) plants can be produced by a method described by Olhoft et al. (US patent 2009/0049567). Briefly, HPPD or HST encoding polynucleotides are cloned into a binary vector using standard cloning techniques as described by Sambrook et al. (Molecular cloning (2001) Cold Spring Harbor Laboratory Press). The final vector construct contains an HPPD or HST encoding sequence flanked by a promoter sequence (e.g. the ubiquitin promoter (PcUbi) sequence) and a terminator sequence (e.g. the nopaline synthase terminator (NOS) sequence) and a resistance marker gene cassette (e.g. AHAS) (FIG. 2). Optionally, the HPPD or HST gene can provide the means of selection. Agrobacterium-mediated transformation is used to introduce the DNA into soybean's axillary meristem cells at the primary node of seedling explants. After inoculation and co-cultivation with Agrobacteria, the explants are transferred to shoot induction medium without selection for one week. The explants are subsequently transferred to shoot induction medium with 1-3 μM imazapyr (Arsenal) for 3 weeks to select for transformed cells. Explants with healthy callus/shoot pads at the primary node are then transferred to shoot elongation medium containing 1-3 μM imazapyr until a shoot elongates or the explant dies. After regeneration, transformants are transplanted to soil in small pots, placed in growth chambers (16 hr day/8 hr night; 25° C. day/23° C. night; 65% relative humidity; 130-150 mE m−2 s−1) and subsequently tested for the presence of the T-DNA via Taqman analysis. After a few weeks, healthy, transgenic positive, single copy events are transplanted to larger pots and allowed to grow in the growth chamber. Transformation of corn plants is done by a method described by McElver and Singh (WO 2008/124495). Plant transformation vector constructs containing HPPD or HST sequences are introduced into maize immature embryos via Agrobacterium-mediated transformation. Transformed cells are selected in selection media supplemented with 0.5-1.5 μM imazethapyr for 3-4 weeks. Transgenic plantlets are regenerated on plant regeneration media and rooted afterwards. Transgenic plantlets are subjected to TaqMan analysis for the presence of the transgene before being transplanted to potting mixture and grown to maturity in greenhouse. Arabidopsis thaliana is transformed with HPPD or HST sequences by floral dip method as described by McElver and Singh (WO 2008/124495). Transgenic Arabidopsis plants are subjected to Tag Man analysis for analysis of the number of integration loci. Transformation of Oryza sativa (rice) are done by protoplast transformation as described by Peng et al. (U.S. Pat. No. 6,653,529)
(§2) Transgenic plants expressing heterologous HPPD or HST enzymes are tested for tolerance against coumarone-derivative herbicides in greenhouse experiments.
(§3) For post emergence treatment, the test plants are first grown to a height of 3 to 15 cm, depending on the plant habit, and only then treated with the herbicides. For this purpose, the test plants are either sown directly and grown in the same containers, or they are first grown separately and transplanted into the test containers a few days prior to treatment.
(§4) Depending on the species, the plants are kept at 10-25° C. or 20-35° C. The test period extends over 3 weeks. During this time, the plants are tended and their response to the individual treatments is evaluated. […] Tolerance to coumarone-derivative herbicides can also be assessed in Arabidopsis. In this case transgenic Arabidopsis thaliana plants are assayed for improved tolerance to coumarone-derivative herbicides in 48-well plates. Seeds are surface sterilized by stirring for 5 min in ethanol+water (70+30 by volume), rinsing one time with ethanol+water (70+30 by volume) and two times with a sterile, deionized water. […]

[2] = test system: soybean plants, wild type (transgene none); assay: Greenhouse testing of soybean plants, wild type; format: in vivo, Glycine max; settings: 5 days after herbicide treatment
Text: as §1, §2, §3, §4

[3] = test system: Arabidopsis wildtype control plants; assay: Arabidopsis growth inhibition in 48-well plates, wildtype control; format: in vivo, Arabidopsis thaliana; settings: plant growth IC50 of line divided by that of wildtype plants
Protocol: Depending on the species, the plants are kept at 10-25° C. or 20-35° C. The test period extends over 3 weeks. During this time, the plants are tended and their response to the individual treatments is evaluated. Herbicide injury evaluations are taken at 2 and 3 weeks after treatment. Plant injury is rated on a scale of 0 to 9, 0 being no injury and 9 being complete death. Tolerance to coumarone-derivative herbicides can also be assessed in Arabidopsis. In this case transgenic Arabidopsis thaliana plants are assayed for improved tolerance to coumarone-derivative herbicides in 48-well plates. Seeds are surface sterilized by stirring for 5 min in ethanol+water (70+30 by volume), rinsing one time with ethanol+water (70+30 by volume) and two times with a sterile, deionized water. The seeds are resuspended in 0.1% agar dissolved in water (w/v). Four to five seeds per well are plated on solid nutrient medium consisting of half-strength Murashige Skoog nutrient solution, pH 5.8 (Murashige and Skoog (1962) Physiologia Plantarum 15: 473-497). […] Seven to ten days after seeding growth inhibition is evaluated by comparison to wild type plants. Tolerance factor is calculated by dividing the plant growth IC50 value of transgenic plants containing a HPPD and/or HST sequence by that of wildtype plants. […]

SMILES | Injury evaluation, scale of 1-100, bleaching phenotype ([1]; 2.5 g/ha) | Injury evaluation, scale of 1-100, bleaching phenotype ([1]; 10 g/ha) | Injury evaluation, scale of 1-100, bleaching phenotype ([1]; 40 g/ha) | Injury evaluation, scale of 1-100, bleaching phenotype ([2]; 2.5 g/ha) | Injury evaluation, scale of 1-100, bleaching phenotype ([2]; 10 g/ha) | Injury evaluation, scale of 1-100, bleaching phenotype ([2]; 40 g/ha) | Tolerance factor [3] | Injury evaluation, scale of 1-100, bleaching phenotype ([1]; 6.25 g/ha) | Injury evaluation, scale of 1-100, bleaching phenotype ([1]; 25 g/ha) | Injury evaluation, scale of 1-100, bleaching phenotype ([1]; 100 g/ha) | Injury evaluation, scale of 1-100, bleaching phenotype ([2]; 6.25 g/ha) | Injury evaluation, scale of 1-100, bleaching phenotype ([2]; 25 g/ha) | Injury evaluation, scale of 1-100, bleaching phenotype ([2]; 100 g/ha)
CC1(C)c2cccnc2C(O)=C(c2ccc(Cl)nc2Cl)S1(=O)=O [Inhibitor 2, 7-(2,6-dichloro-3-pyridyl)-5,5-dimethyl-6,6-dioxo-thiopyrano[4,3-b]pyridin-8-ol] | 7 | 7 | 25 | 11 | 17 | 23 | 1 |  |  |  |  |  | 
Cc1c(C(=O)c2cnn(C)c2O)ccc(S(C)(=O)=O)c1C1=NOCC1 [Topramezone, reference compound] |  |  |  |  |  |  |  | 0 | 0 | 4 | 21 | 22 | 25
CC1=NOC(c2c(Cl)ccc(C3=C(O)c4ncccc4C(C)(C)S3(=O)=O)c2Cl)C1 (centres unmarked) [Inhibitor 1, 7-[2,4-dichloro-3-(3-methyl-4,5-dihydroisoxazol-5-yl)phenyl]-5,5-dimethyl-6,6-dioxo-thiopyrano[4,3-b]pyridin-8-ol] |  |  |  |  |  |  | 1 |  |  |  |  |  | 

Source: US20140357487A1, “PLANTS HAVING INCREASED TOLERANCE TO HERBICIDES” (BASF SE, priority 2011, published 2014)
